Patent US10238688B2, “Combination therapies for bladder cancer” (GENEDIA BIOTECH CO. LTD., priority 2015, dated 2019)

Legend:
Type in all cases: in vivo, BALB/C male nude mice
[1] = system: Ki67-positive cells in tumor xenografts; test: Ki67 immunohistochemistry of tumor xenografts; conditions: relative to PBS controls; day 28
Description: (§1) Immunostaining was performed on 5 μm slices of formalin fixed paraffin-embedded tumor xenografts using antibodies from Gene Tech Company (Shanghai, China) against both Ki67 and CD34. Pictures were taken by LEICA DM 4000B microscope and the relative level of each protein was calculated using LEICA software. The relative staining per antibody (in percentage) in the […] tumors was calculated and plotted.
(§2) This example then compared the in vivo anticancer activity of EH/Ci/Mi regimen with its mono- and bi-drug counterparts on the 5637, UM-UC-3, or Biu87 cells derived tumor xenografts in nude mice. Since there is no established conversion rule for the drug dose in cell culture to in nude mice, this example used 75 μg per mouse for the mono-drug treatments and 25 μg per drug per mouse for both bi-drug and tri-drug combinations, based on the maximum tolerated drug dose recommended for these drugs. To minimize the inter-mouse bias's effect on tumor growth, three different BCa cell line-derived tumor xenografts were individually established subcutaneously on the back of the twelve mice (FIG. 5A). […] The tumor volumes were measured once every three days and were normalized by the volume on day 7. […]

[2] = system: CD34 positive vascular structures in tumor xenografts; test: CD34 immunohistochemistry of tumor xenografts; conditions: relative to PBS controls; day 28
Description: as §1, §2

[3] = system: Biu87 derived tumor xenografts; test: Biu87 tumor xenograft growth in nude mice
Description: (§3) Each experiment was performed three times. All animals were adult BALB/C male nude mice of 8-12 weeks of age and experiments were performed in accordance with the National Institutes of Health Guide for the Care and Use of Laboratory Animals and approved by the animal research committee of Harbin Medical University, China.
(§4) Cells (1×10^6-7th/100 μL) embedded in BD Matrigel™ Matrix were subcutaneously injected at three sites in the back of each mouse (3-4 mice per treatment). On day 7-12th following cell injection, the animals were treated with the different drugs by an intraperitoneal injection, which was repeated every three days. Tumor volumes were monitored/calculated using the equation V=W^2L×0.5 (where W and L represent the […] tumor diameters (mm)) and then plotted. The tumor mass mice were weighed, fixed/sliced for immunohistochemistry after sacrificing the animals.
(§5) Two sets of tumor xenograft/nude mice studies were carried out. The in vivo study involves […]. Both mean±S.D of tumor volume and mass were calculated. […]
(§6) This example then compared the in vivo anticancer activity of EH/Ci/Mi regimen with its mono- and bi-drug counterparts on the 5637, UM-UC-3, or Biu87 cells derived tumor xenografts in nude mice. […] The tumor volumes were measured once every three days and were normalized by the volume on day 7. […]

[4] = system: 5637 derived tumor xenografts; test: 5637 tumor xenograft growth in nude mice
Description: as §3, §4, §5, §6

[5] = system: UM-UC-3 derived tumor xenografts; test: UM-UC-3 tumor xenograft growth in nude mice
Description: as §3, §4, §5, §6

SMILES: N.N.[Cl][Pt][Cl] [Ci, (SP-4-2)-diamminedichloroplatinum(II)]
- percentage of Ki67-positive cells in tumor xenografts [1]: reduced
- numbers of CD34 positive vascular structures in tumor xenografts [2]: reduced
- relative tumor weight ([3]; Biu87 derived tumor, day 28, tri-drug group taken as 1): 1.48
- increase in tumor volume on day 28th (relative tumor volume) ([3]; Biu87 xenograft, normalized by volume on day 7, i.p. at three-day interval, 75 μg per mouse mono-drug, 25 μg per drug per mouse combinations): 4.95
- relative tumor weight ([4]; 5637 derived tumor, day 28, tri-drug group taken as 1): 1.79
- relative tumor volume ([4]; 5637 xenograft, normalized by volume on day 7, i.p. at three-day interval, 75 μg per mouse mono-drug, 25 μg per drug per mouse combinations): 6.2
- relative tumor weight ([5]; UM-UC-3 derived tumor, day 28, tri-drug group taken as 1): 3.37
- increase in tumor volume on day 28th (relative tumor volume) ([5]; UM-UC-3 xenograft, normalized by volume on day 7, i.p. at three-day interval, 75 μg per mouse mono-drug, 25 μg per drug per mouse combinations): 10.58
